Assay results taken from US20250092016A1, “COMPOUNDS AND COMPOSITIONS FOR THE TREATMENT OF CORONAVIRAL RELATED DISEASES” (priority 2021, published 2025).
Read-outs that look alike come from different tables or passages of the source.

Molecular target: SARS-CoV-2 main protease (M^pro) (Severe acute respiratory syndrome coronavirus 2, UniProt P0DTD1)
Experiment: Rapid-Fire MS Biochemical Assay measuring Mpro activity (5 nM Mpro)
Settings: Mpro inhibition, 5 μM substrate peptide, 120 min
[1] = Table 1B, read-out: Rapid-Fire Assay IC50

Row | Compound | IC50 [1] | IC50 (Rapid-Fire Assay IC50, Table 1B)
1 | N#C[C@@H]1CN(c2cncc(C(F)(F)F)c2)C(=O)N1c1cncc2ccccc12 (single isomer, unassigned) [Compound 104b] | > 1000 nM | –
2 | CC(C)(O)c1ccc2cncc(N3C(=O)N(c4cccc(Cl)c4)CC3C#N)c2c1 (stereo not drawn) [Compound 34, 1-(3-chlorophenyl)-3-(6-(2-hydroxypropan-2-yl)isoquinolin-4-yl)-2-oxoimidazolidine-4-carbonitrile] | < 20 nM | –
3 | Cc1cc(N2C[C@@H](C#N)N(c3cncc4ccccc34)C2=O)ccn1 (single isomer, unassigned) [Compound 44b] | > 1000 nM | –
4 | CS(=O)(=O)c1ccc2cncc(N3C(=O)N(c4ccc(F)c(F)c4)C[C@H]3C#N)c2c1 (single isomer, unassigned) [Compound 85b] | > 1000 nM | –
5 | N#C[C@H]1CN(c2cccc(C(F)(F)F)c2)C(=O)N1c1cncc2ccccc12 (single isomer, unassigned) [Compound 106a] | < 20 nM | –
6 | COc1cc(N2C[C@H](C#N)N(c3cncc4ccccc34)C2=O)ccn1 (single isomer, unassigned) [Compound 23a] | < 20 nM | –
7 | Cc1ccc(C#N)c(N2C[C@@H](C#N)N(c3cncc4ccccc34)C2=O)c1 (single isomer, unassigned) [Compound 116b] | 200 to 1000 nM | –
8 | COc1cc(C(F)(F)F)ccc1N1C[C@H](C#N)N(c2cncc3ccccc23)C1=O (single isomer, unassigned) [Compound 12a] | < 20 nM | –
9 | Cc1cc(N2C[C@H](C#N)N(c3cncc4ccccc34)C2=O)cc(C)n1 (single isomer, unassigned) [Compound 102a] | < 20 nM | –
10 | N#C[C@H]1CN(c2cc(C(F)(F)F)cnn2)C(=O)N1c1cncc2ccccc12 (single isomer, unassigned) [Compound 30a] | < 20 nM | –
11 | N#CC1CN(C2CN(C3CC3)C2)C(=O)N1c1cncc2ccccc12 (racemic) [Compound 135, 1-(1-cyclopropylazetidin-3-yl)-3-(isoquinolin-4-yl)-2-oxoimidazolidine-4-carbonitrile] | 20 to 200 nM | –
12 | N#C[C@H]1CN(C2CN(S(=O)(=O)C(F)(F)F)C2)C(=O)N1c1cncc2ccccc12 (single isomer, unassigned) [Compound 129a] | 20 to 200 nM | –
13 | Cc1cnc(C(F)(F)F)nc1N1C[C@@H](C#N)N(c2cncc3ccccc23)C1=O (single isomer, unassigned) [Compound 62b] | > 1000 nM | –
14 | N#Cc1cnc(C(F)(F)F)cc1N1C[C@H](C#N)N(c2cncc3ccccc23)C1=O (single isomer, unassigned) [Compound 117a] | < 20 nM | –
15 | N#C[C@@H]1CN(C2CN(S(=O)(=O)C3CC3)C2)C(=O)N1c1cncc2ccccc12 (single isomer, unassigned) [Compound 131b] | – | > 1000 nM
16 | N#C[C@@H]1CN(c2cc(C(F)(F)F)cnn2)C(=O)N1c1cncc2ccccc12 (single isomer, unassigned) [Compound 30b] | > 1000 nM | –
17 | CC(=O)N1CC(N2C[C@H](C#N)N(c3cncc4ccccc34)C2=O)C1 (single isomer, unassigned) [Compound 134a] | 200 to 1000 nM | –
18 | N#C[C@H]1CN(c2ccc(F)c(Cl)c2)C(=O)N1c1cncc2ccccc12 (single isomer, unassigned) [Compound 87a] | < 20 nM | –
19 | Cc1cc(Cl)cnc1N1C[C@H](C#N)N(c2cncc3ccccc23)C1=O (single isomer, unassigned) [Compound 80a] | 20 to 200 nM | –
20 | N#C[C@@H]1CN(c2cnc(C(F)(F)F)c(F)c2)C(=O)N1c1cncc2ccccc12 (single isomer, unassigned) [Compound 77b] | 20 to 200 nM | –
21 | Cc1cnc(C(F)(F)F)nc1N1C[C@H](C#N)N(c2cncc3ccccc23)C1=O (single isomer, unassigned) [Compound 62a] | 200 to 1000 nM | –
22 | N#C[C@H]1CN([C@H]2C[C@H](C3CC3)C2)C(=O)N1c1cncc2ccccc12 [Compound 124b, (R)-1-((1r,3R)-3-cyclopropylcyclobutyl)-3-(isoquinolin-4-yl)-2-oxoimidazolidine-4-carbonitrile] | < 20 nM | –
23 | N#Cc1ccc2cncc(N3C(=O)N(c4cccc(Cl)c4)C[C@@H]3C#N)c2c1 (single isomer, unassigned) [Compound 39a] | < 20 nM | –
24 | Cc1ccc(C#N)c(N2C[C@H](C#N)N(c3cncc4ccccc34)C2=O)c1 (single isomer, unassigned) [Compound 116a] | < 20 nM | –
25 | N#C[C@H]1CN(c2ccc(F)c(F)c2)C(=O)N1c1cncc2ccccc12 (single isomer, unassigned) [Compound 72a] | < 20 nM | –
26 | COc1ccc(F)cc1N1C[C@H](C#N)N(c2cncc3ccccc23)C1=O (single isomer, unassigned) [Compound 105a] | < 20 nM | –
27 | COc1cnc(C(F)(F)F)nc1N1C[C@@H](C#N)N(c2cncc3ccccc23)C1=O (single isomer, unassigned) [Compound 31b] | > 1000 nM | –

Row | Compound | IC50 [1] | IC50 (Rapid-Fire Assay IC50, Table 1B)
28 | Cc1ccnc(N2C[C@H](C#N)N(c3cncc4ccccc34)C2=O)n1 (single isomer, unassigned) [Compound 53a] | 200 to 1000 nM | –
29 | N#C[C@H]1CN(C2CN(CC(F)(F)F)C2)C(=O)N1c1cncc2ccccc12 (single isomer, unassigned) [Compound 133a] | < 20 nM | –
30 | C[C@H]1C[C@H](N2C[C@H](C#N)N(c3cncc4ccccc34)C2=O)C1 [Compound 120b, (R)-3-(isoquinolin-4-yl)-1-((1 r,3R)-3-methylcyclobutyl)-2-oxoimidazolidine-4-carbonitrile] | 20 to 200 nM | –
31 | N#CC1CN(C2CC(F)(F)C2)C(=O)N1c1cncc2ccccc12 (racemic) [Compound 27, 1-(3,3-difluorocyclobutyl)-3-(isoquinolin-4-yl)-2-oxoimidazolidine-4-carbonitrile] | 20 to 200 nM | –
32 | N#C[C@@H]1CN(C2CCC(F)(F)CC2)C(=O)N1c1cncc2ccccc12 (single isomer, unassigned) [Compound 138b] | > 1000 nM | –
33 | N#CC1CN(c2ccc(F)c(Cl)c2)C(=O)N1c1cncc2ccccc12 (racemic) [Compound 87, 1-(3-chloro-4-fluorophenyl)-3-(isoquinolin-4-yl)-2-oxoimidazolidine-4-carbonitrile] | < 20 nM | –
34 | N#C[C@H]1CN(c2cc(OC(F)F)ccc2F)C(=O)N1c1cncc2ccccc12 (single isomer, unassigned) [Compound 59a] | 20 to 200 nM | –
35 | CS(=O)(=O)N1CC(N2C[C@@H](C#N)N(c3cncc4ccccc34)C2=O)C1 (single isomer, unassigned) [Compound 130b] | > 1000 nM | –
36 | Cc1ncccc1N1C[C@@H](C#N)N(c2cncc3ccccc23)C1=O (single isomer, unassigned) [Compound 74b] | > 1000 nM | –
37 | N#C[C@H]1CN(C23CC(F)(C2)C3)C(=O)N1c1cncc2ccccc12 (single isomer, unassigned) [Compound 139a] | < 20 nM | –
38 | CC(C)c1ccc(N2C[C@@H](C#N)N(c3cncc4ccccc34)C2=O)cn1 (single isomer, unassigned) [Compound 94b] | > 1000 nM | –
39 | CS(=O)(=O)c1cccc(N2C[C@H](C#N)N(c3cncc4ccccc34)C2=O)c1 (single isomer, unassigned) [Compound 48a] | < 20 nM | –
40 | N#Cc1cnc(C(F)(F)F)cc1N1C[C@@H](C#N)N(c2cncc3ccccc23)C1=O (single isomer, unassigned) [Compound 117b] | 200 to 1000 nM | –
41 | N#C[C@H]1CN(c2ccc(C(F)F)cn2)C(=O)N1c1cncc2ccccc12 (single isomer, unassigned) [Compound 78a] | < 20 nM | –
42 | N#C[C@@H]1CN(C2CC3(CCC3)C2)C(=O)N1c1cncc2ccccc12 (single isomer, unassigned) [Compound 122b] | > 1000 nM | –
43 | N#C[C@H]1CN([C@H]2C[C@H](C(F)(F)F)C2)C(=O)N1c1cncc2ccccc12 [Compound 45a, (R)-3-(isoquinolin-4-yl)-2-oxo-1-((1 r,3R)-3-(trifluoromethyl)cyclobutyl)imidazolidine-4-carbonitrile] | < 20 nM | –
44 | N#C[C@H]1CN(c2cnc(C(F)(F)F)cn2)C(=O)N1c1cncc2ccccc12 (single isomer, unassigned) [Compound 32a] | < 20 nM | –
45 | N#Cc1cc(Cl)ccc1N1C[C@@H](C#N)N(c2cncc3ccccc23)C1=O (single isomer, unassigned) [Compound 60b] | 200 to 1000 nM | –
46 | Cc1ncc(C(F)(F)F)cc1N1C[C@@H](C#N)N(c2cncc3ccccc23)C1=O (single isomer, unassigned) [Compound 88b] | > 1000 nM | –
47 | N#C[C@@H]1CN(c2cnnc(C(F)(F)F)c2)C(=O)N1c1cncc2ccccc12 (single isomer, unassigned) [Compound 13b] | > 1000 nM | –
48 | N#C[C@H]1CN([C@H]2C[C@@H](C(F)(F)F)C2)C(=O)N1c1cncc2ccccc12 [Compound 45b, (R)-3-(isoquinolin-4-yl)-2-oxo-1-((1s,3S)-3-(trifluoromethyl)cyclobutyl)imidazolidine-4-carbonitrile] | 200 to 1000 nM | –
49 | N#C[C@H]1CN(c2ccc(OC(F)(F)F)cc2)C(=O)N1c1cncc2ccccc12 (single isomer, unassigned) [Compound 91a] | < 20 nM | –
50 | CC(=O)N1CC(N2C[C@@H](C#N)N(c3cncc4ccccc34)C2=O)C1 (single isomer, unassigned) [Compound 134b] | > 1000 nM | –
51 | N#C[C@H]1CN([C@H]2C[C@@H](C3CC3)C2)C(=O)N1c1cncc2ccccc12 [Compound 124a, (R)-1-((1s,3S)-3-cyclopropylcyclobutyl)-3-(isoquinolin-4-yl)-2-oxoimidazolidine-4-carbonitrile] | < 20 nM | –
52 | N#C[C@@H]1CN(C2CC3(CC3)C2)C(=O)N1c1cncc2ccccc12 (single isomer, unassigned) [Compound 125b] | > 1000 nM | –
53 | COc1cc(C(F)(F)F)ccc1N1CC(C#N)N(c2cncc3ccccc23)C1=O (racemic) [Compound 12, 3-(isoquinolin-4-yl)-1-(2-methoxy-4-(trifluoromethyl)phenyl)-2-oxoimidazolidine-4-carbonitrile] | 20 to 200 nM | –
54 | Cc1c[nH]c(N2C[C@@H](C#N)N(c3cncc4ccccc34)C2=O)n1 (single isomer, unassigned) [Compound 118b] | > 1000 nM | –
